{
  "source": "paper PMC4635504",
  "about": "“Characterization of a bifidobacterial system that utilizes galacto-oligosaccharides” (Microbiology, 2015)",
  "molecular_target": "T1, BbrY_0420 (SBP of the ABC transporter) (Bifidobacterium breve, UniProt A0AAX3NJV5)",
  "T1 sequence (A0AAX3NJV5 1-449)": "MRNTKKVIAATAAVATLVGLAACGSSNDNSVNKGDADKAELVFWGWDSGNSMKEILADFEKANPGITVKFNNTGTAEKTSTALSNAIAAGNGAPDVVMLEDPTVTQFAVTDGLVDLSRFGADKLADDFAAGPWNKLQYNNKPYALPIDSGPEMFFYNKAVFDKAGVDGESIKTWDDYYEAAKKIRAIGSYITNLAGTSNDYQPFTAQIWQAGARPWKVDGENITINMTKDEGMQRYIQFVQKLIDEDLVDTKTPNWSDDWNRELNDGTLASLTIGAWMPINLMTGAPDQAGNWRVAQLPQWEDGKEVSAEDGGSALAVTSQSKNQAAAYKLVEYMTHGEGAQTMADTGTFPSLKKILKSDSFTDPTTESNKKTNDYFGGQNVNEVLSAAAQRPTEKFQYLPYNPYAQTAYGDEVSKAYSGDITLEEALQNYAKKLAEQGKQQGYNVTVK",
  "settings": "HBS-P+ buffer, 25 °C, one-site binding model",
  "data": [
    {"smiles": "OC[C@H]1O[C@@H](O[C@@H]2[C@H](O)[C@@H](O)[C@H](O[C@H]3[C@H](O)[C@@H](O)C(O)O[C@@H]3CO)O[C@@H]2CO)[C@H](O)[C@@H](O)[C@H]1O", "note": "(stereo partly shown) [4′-GL, 4′-galactosyllactose]", "values": [
      {"measurement": "Kd", "value": 10.4, "unit": "µM"}
    ]}
  ]
}
